Biological target: human μ-opiate receptor (Homo sapiens, UniProt P35372)
Test: Affinity for the human μ-opiate receptor ([3H]-naloxone displacement, SPA, CHO-K1 membrane preparation)
Type: binding
Conditions: for inhibition at 1 µM: read-out: μ-Opioid receptor, % inhibition [1 μM]; for Ki: read-out: μ-Opioid receptor, Ki

Sequence of human μ-opiate receptor (P35372 whole entry): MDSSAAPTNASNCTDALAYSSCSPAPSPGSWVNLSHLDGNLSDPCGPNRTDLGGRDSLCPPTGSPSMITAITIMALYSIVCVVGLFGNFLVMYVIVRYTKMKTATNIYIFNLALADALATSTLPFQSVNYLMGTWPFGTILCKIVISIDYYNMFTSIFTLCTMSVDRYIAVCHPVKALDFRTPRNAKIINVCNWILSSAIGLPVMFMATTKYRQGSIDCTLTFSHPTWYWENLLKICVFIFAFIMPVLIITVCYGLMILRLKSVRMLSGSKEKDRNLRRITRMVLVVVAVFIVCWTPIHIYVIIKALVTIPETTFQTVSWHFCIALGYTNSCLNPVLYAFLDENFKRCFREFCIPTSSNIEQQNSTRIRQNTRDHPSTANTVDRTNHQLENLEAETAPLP

SMILES	inhibition at 1 µM [%]	Ki [nM]
CN(C)C(c1cccc(F)c1)C1CCC(CCNC(=O)c2ccc(F)cc2)CC1 (stereo not drawn) [compound 409, N-(2-{4-[dimethylamino-(3-fluoro-phenyl)-methyl]-cyclohexyl}-ethyl)-4-fluoro-benzamide]	84	28
CN(C)C(c1ccccc1)C1CCC(CCNC(=O)c2ccccc2F)CC1 (stereo not drawn) [compound 410, N-{2-[4-(dimethylamino-phenyl-methyl)-cyclohexyl]-ethyl}-2-fluoro-benzamide]	88	5.8
CN(C)C(c1cccc(F)c1)C1CCC(CCNC(=O)c2ccccc2F)CC1 (stereo not drawn) [compound 411, N-(2-{4-[dimethylamino-(3-fluoro-phenyl)-methyl]-cyclohexyl}-ethyl)-2-fluoro-benzamide]	99	11
Cc1cccc(C(=O)NCCC2CCC(C(c3cccc(F)c3)N(C)C)CC2)c1 (stereo not drawn) [compound 412, N-(2-{4-[dimethylamino-(3-fluoro-phenyl)-methyl]-cyclohexyl}-ethyl)-3-methyl-benzamide]	93	32
CN(C)C(c1ccccc1)C1CCC(CCNC(=O)c2c(Cl)cccc2Cl)CC1 (stereo not drawn) [compound 413, 2,6-dichloro-N-{2-[4-(dimethylamino-phenyl-methyl)-cyclohexyl]-ethyl}-benzamide]	81	31
COc1ccccc1C(=O)NCCC1CCC(C(c2ccccc2)N(C)C)CC1 (stereo not drawn) [compound 414, N-{2-[4-(dimethylamino-phenyl-methyl)-cyclohexyl]-ethyl}-2-methoxy-benzamide]	99	4.6
COc1ccccc1C(=O)NCCC1CCC(C(c2cccc(F)c2)N(C)C)CC1 (stereo not drawn) [compound 415, N-(2-{4-[dimethylamino-(3-fluoro-phenyl)-methyl]-cyclohexyl}-ethyl)-2-methoxy-benzamide]	99	5.1
CN(C)C(c1ccccc1)C1CCC(CCNC(=O)c2ccc(Cl)c(Cl)c2)CC1 (stereo not drawn) [compound 416, 3,4-dichloro-N-{2-[4-(dimethylamino-phenyl-methyl)-cyclohexyl]-ethyl}-benzamide]	86	19
Cc1ccccc1C(=O)NCCC1CCC(C(c2ccc(Cl)cc2)N(C)C)CC1 (stereo not drawn) [compound 419, N-(2-{4-[(4-chloro-phenyl)-dimethylamino-methyl]-cyclohexyl}-ethyl)-2-methyl-benzamide]	86	32
Cc1ccccc1C(=O)NCCC1CCC(C(c2cccc(F)c2)N(C)C)CC1 (stereo not drawn) [compound 420, N-(2-{4-[dimethylamino-(3-fluoro-phenyl)-methyl]-cyclohexyl}-ethyl)-2-methyl-benzamide]	94	16
CN(C)C(c1ccccc1)C1CCC(CCNC(=O)c2ccc(C#N)cc2)CC1 (stereo not drawn) [compound 421, 4-cyano-N-{2-[4-(dimethylamino-phenyl-methyl)-cyclohexyl]-ethyl}-benzamide]	80	91
CN(C)C(c1cccs1)C1CCC(CCNC(=O)c2cccc(Cl)c2)CC1 (stereo not drawn) [compound 424, 3-chloro-N-{2-[4-(dimethylamino-thiophen-2-yl-methyl)-cyclohexyl]-ethyl}-benzamide]	99	2.7
CN(C)C(c1cccs1)C1CCC(CCNC(=O)c2ccccc2Cl)CC1 (stereo not drawn) [compound 425, 2-chloro-N-{2-[4-(dimethylamino-thiophen-2-yl-methyl)-cyclohexyl]-ethyl}-benzamide]	94	6
CN(C)C(c1cccs1)C1CCC(CCNC(=O)c2ccc(F)cc2)CC1 (stereo not drawn) [compound 426, N-{2-[4-(dimethylamino-thiophen-2-yl-methyl)-cyclohexyl]-ethyl}-4-fluoro-benzamide]	99	5.8
CN(C)C(c1ccc(F)cc1)C1CCC(CCNC(=O)c2ccccc2F)CC1 (stereo not drawn) [compound 427, N-(2-{4-[dimethylamino-(4-fluoro-phenyl)-methyl]-cyclohexyl}-ethyl)-2-fluoro-benzamide]	84	40
CN(C)C(c1cccs1)C1CCC(CCNC(=O)c2ccccc2F)CC1 (stereo not drawn) [compound 428, N-{2-[4-(dimethylamino-thiophen-2-yl-methyl)-cyclohexyl]-ethyl}-2-fluoro-benzamide]	97	5.4
Cc1cccc(C(=O)NCCC2CCC(C(c3ccc(F)cc3)N(C)C)CC2)c1 (stereo not drawn) [compound 429, N-(2-{4-[dimethylamino-(4-fluoro-phenyl)-methyl]-cyclohexyl}-ethyl)-3-methyl-benzamide]	88	55
Cc1cccc(C(=O)NCCC2CCC(C(c3cccs3)N(C)C)CC2)c1 (stereo not drawn) [compound 430, N-{2-[4-(dimethylamino-thiophen-2-yl-methyl)-cyclohexyl]-ethyl}-3-methyl-benzamide]	101	4.4

SMILES	inhibition at 1 µM [%]	Ki [nM]
CN(C)C(c1cccs1)C1CCC(CCNC(=O)c2c(Cl)cccc2Cl)CC1 (stereo not drawn) [compound 431, 2,6-dichloro-N-{2-[4-(dimethylamino-thiophen-2-yl-methyl)-cyclohexyl]-ethyl}-benzamide]	93	26
COc1ccccc1C(=O)NCCC1CCC(C(c2ccc(F)cc2)N(C)C)CC1 (stereo not drawn) [compound 432, N-(2-{4-[dimethylamino-(4-fluoro-phenyl)-methyl]-cyclohexyl}-ethyl)-2-methoxy-benzamide]	95	18
CN(C)C(c1ccccc1)C1CCC(CCNC(=O)c2cc(F)cc(F)c2)CC1 (stereo not drawn) [compound 433, N-{2-[4-(dimethylamino-phenyl-methyl)-cyclohexyl]-ethyl}-3,5-difluoro-benzamide]	89	3.8
CN(C)C(c1ccc(Cl)cc1)C1CCC(CCNC(=O)c2cc(F)cc(F)c2)CC1 (stereo not drawn) [compound 434, N-(2-{4-[(4-chloro-phenyl)-dimethylamino-methyl]-cyclohexyl}-ethyl)-3,5-difluoro-benzamide]	85	24
CN(C)C(c1cccc(F)c1)C1CCC(CCNC(=O)c2cc(F)cc(F)c2)CC1 (stereo not drawn) [compound 435, N-(2-{4-[dimethylamino-(3-fluoro-phenyl)-methyl]-cyclohexyl}-ethyl)-3,5-difluoro-benzamide]	99	14
CN(C)C(c1ccc(Cl)cc1)C1CCC(CCNC(=O)c2ccc(F)cc2F)CC1 (stereo not drawn) [compound 436, N-(2-{4-[(4-chloro-phenyl)-dimethylamino-methyl]-cyclohexyl}-ethyl)-2,4-difluoro-benzamide]	91	29
CN(C)C(c1ccc(Cl)cc1)C1CCC(CCNC(=O)c2cc(F)c(Cl)cc2Cl)CC1 (stereo not drawn) [compound 437, 2,4-dichloro-N-(2-{4-[(4-chloro-phenyl)-dimethylamino-methyl]-cyclohexyl}-ethyl)-5-fluoro-benzamide]	80	100
CN(C)C(c1cccs1)C1CCC(CCNC(=O)c2cc(F)c(Cl)cc2Cl)CC1 (stereo not drawn) [compound 440, 2,4-dichloro-N-{2-[4-(dimethylamino-thiophen-2-yl-methyl)-cyclohexyl]-ethyl}-5-fluoro-benzamide]	95	15
CN(C)C(c1ccc(Cl)cc1)C1CCC(CCNC(=O)c2cccnc2Cl)CC1 (stereo not drawn) [compound 441, 2-chloro-N-(2-{4-[(4-chloro-phenyl)-dimethylamino-methyl]-cyclohexyl}-ethyl)-nicotinamide]	83	200
CN(C)C(c1ccc(F)cc1)C1CCC(CCNC(=O)c2ccc3ccccc3c2)CC1 (stereo not drawn) [compound 442, naphthalene-2-carboxylic acid (2-{4-[dimethylamino-(4-fluoro-phenyl)-methyl]-cyclohexyl}-ethyl)-amide]	86	110
CCCc1ccc(C(=O)NCCC2CCC(C(c3cccs3)N(C)C)CC2)cc1 (stereo not drawn) [compound 443, N-{2-[4-(dimethylamino-thiophen-2-yl-methyl)-cyclohexyl]-ethyl}-4-propyl-benzamide]	96	40
CN(C)C(c1ccccc1)C1CCC(CCNC(=O)c2ccc(F)c(F)c2)CC1 (stereo not drawn) [compound 444, N-{2-[4-(dimethylamino-phenyl-methyl)-cyclohexyl]-ethyl}-3,4-difluoro-benzamide]	101	11
CN(C)C(c1ccc(Cl)cc1)C1CCC(CCNC(=O)c2ccc(F)c(F)c2)CC1 (stereo not drawn) [compound 445, N-(2-{4-[(4-chloro-phenyl)-dimethylamino-methyl]-cyclohexyl}-ethyl)-3,4-difluoro-benzamide]	86	69
CN(C)C(c1cccs1)C1CCC(CCNC(=O)c2ccc(F)c(F)c2)CC1 (stereo not drawn) [compound 446, N-{2-[4-(dimethylamino-thiophen-2-yl-methyl)-cyclohexyl]-ethyl}-3,4-difluoro-benzamide]	99	6.4
COc1cccc(C(=O)NCCC2CCC(C(c3ccc(F)cc3)N(C)C)CC2)c1 (stereo not drawn) [compound 447, N-(2-{4-[dimethylamino-(4-fluoro-phenyl)-methyl]-cyclohexyl}-ethyl)-3-methoxy-benzamide]	83	130
CN(C)C(c1ccccc1)C1CCC(CCNC(=O)C(c2ccccc2)c2ccccc2)CC1 (stereo not drawn) [compound 448, N-{2-[4-(dimethylamino-phenyl-methyl)-cyclohexyl]-ethyl}-2,2-diphenyl-acetamide]	95	33
CN(C)C(c1ccccc1)C1CCC(CCNC(=O)C2(c3ccc(Cl)cc3)CCCC2)CC1 (stereo not drawn) [compound 449, 1-(4-chloro-phenyl)-cyclopentane-carboxylic acid {2-[4-(dimethylamino-phenyl-methyl)-cyclohexyl]-ethyl}-amide]	88	36
CN(C)C(c1ccccc1)C1CCC(CCNC(=O)COCc2ccccc2)CC1 (stereo not drawn) [compound 450, 2-benzyloxy-N-{2-[4-(dimethylamino-phenyl-methyl)-cyclohexyl]-ethyl}-acetamide]	89	81
